# Source: patent publication US9732076B2, “Solid oral dosage formulation of HCV inhibitor in the amorphous state” (Boehringer Ingelheim International GmbH, priority 2013, dated 2017)
# Assay: Ames test / genotoxicity of degradation product
compound,measurement,value
C=C[C@@H]1C[C@]1(N)C(=O)O [Compound X],Ames result / genotoxicity,Ames positive
